Test results from PubChem BioAssay AID256 (DTP/NCI, 2004).
Several values for one entry are separate records, joined by “and”; a condition that tells them apart may be missing. Equal values may be shown once. Inconclusive results and toxic doses are left out.

Test system: CD2F1 mice, L1210 leukemia ip, survival T/C
Test: NCI In Vivo Anticancer Drug Screen. Data for tumor model L1210 Leukemia (intraperitoneal) in CD2F1 (CDF1) mice
Conditions: higher = longer survival
Summary of the method: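 In this screen, transplantable tumors were grown in mice given either the compound or its vehicle. Results were expressed as the treated measurement relative to the control measurement.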

[1] = endpoint: mean survival time, dose: 100.0 mg/kg/injection, schedule: Q01DX009 (ip), vehicle: saline with Tween-80
[2] = endpoint: mean survival time, dose: 100.0 mg/kg/injection, schedule: Q04DX002 (ip), vehicle: saline with Tween-80
[3] = endpoint: mean survival time, dose: 400.0 mg/kg/injection, schedule: Q01DX001 (ip), vehicle: saline with Tween-80
[4] = endpoint: median survival time, dose: 50.0 mg/kg/injection, schedule: Q01DX009 (ip), vehicle: saline with Tween-80
[5] = endpoint: median survival time, dose: 100.0 mg/kg/injection, schedule: Q01DX009 (ip), vehicle: saline with Tween-80
[6] = endpoint: median survival time, dose: 200.0 mg/kg/injection, schedule: Q01DX009 (ip), vehicle: saline with Tween-80
[7] = endpoint: median survival time, dose: 400.0 mg/kg/injection, schedule: Q01DX009 (ip), vehicle: saline with Tween-80

Which results are given for `CCCC(=O)Oc1ccc(/C=N/NC(N)=S)nc1`?
T/C [1]: 182 % of control; T/C [2]: 115 % of control; T/C (endpoint: mean survival time, dose: 178.0 mg/kg/injection, schedule: Q01DX001 (ip), vehicle: saline with Tween-80): 116 % of control; T/C (endpoint: mean survival time, dose: 178.0 mg/kg/injection, schedule: Q04DX003 (ip), vehicle: saline with Tween-80): 118 % of control; T/C (endpoint: mean survival time, dose: 200.0 mg/kg/injection, schedule: Q01DX009 (ip), vehicle: saline with Tween-80): 119 % of control; T/C (endpoint: mean survival time, dose: 266.0 mg/kg/injection, schedule: Q01DX001 (ip), vehicle: saline with Tween-80): 113 % of control; T/C (endpoint: mean survival time, dose: 266.0 mg/kg/injection, schedule: Q04DX003 (ip), vehicle: saline with Tween-80): 121 % of control; T/C [3]: 95 % of control; T/C (endpoint: mean survival time, dose: 400.0 mg/kg/injection, schedule: Q04DX003 (ip), vehicle: saline with Tween-80): 117 % of control; T/C (endpoint: mean survival time, dose: 600.0 mg/kg/injection, schedule: Q01DX001 (ip), vehicle: saline with Tween-80): 124 % of control; T/C (endpoint: mean survival time, dose: 900.0 mg/kg/injection, schedule: Q01DX001 (ip), vehicle: saline with Tween-80): 161 % of control; T/C (endpoint: median survival time, dose: 36.0 mg/kg/injection, schedule: Q01DX005 (ip), vehicle: saline with Tween-80): 151 % of control; T/C [4]: 172 % of control; T/C (endpoint: median survival time, dose: 60.0 mg/kg/injection, schedule: Q01DX005 (ip), vehicle: saline with Tween-80): 160 % of control; T/C (endpoint: median survival time, dose: 100.0 mg/kg/injection, schedule: Q01DX005 (ip), vehicle: saline with Tween-80): 162 % of control; T/C [5]: 156 % of control and 247 % of control; T/C (endpoint: median survival time, dose: 166.67 mg/kg/injection, schedule: Q01DX005 (ip), vehicle: saline with Tween-80): 112 % of control; T/C [6]: 164 % of control and 190 % of control; T/C [7]: 113 % of control and 107 % of control

Which T/C (endpoint: mean survival time, dose: 25.0 mg/kg/injection, schedule: Q01DX009 (ip), vehicle: saline with Tween-80) does the source give for `CC(=O)OC1CCC2(C)CCCC(O)C2(O)C1` (stereo unspecified) here?
Its T/C is 103 % of control.

And the T/C (endpoint: mean survival time, dose: 50.0 mg/kg/injection, schedule: Q01DX009 (ip), vehicle: saline with Tween-80)?
The T/C was 116 % of control.

And the T/C [1]?
The T/C was 107 % of control.

And the T/C (endpoint: mean survival time, dose: 100.0 mg/kg/injection, schedule: Q04DX003 (ip), vehicle: acetone)?
The T/C was 101 % of control.

What about the T/C (endpoint: mean survival time, dose: 150.0 mg/kg/injection, schedule: Q01DX009 (ip), vehicle: saline) of the same compound?
Its T/C is 97 % of control.

What about the T/C (endpoint: mean survival time, dose: 225.0 mg/kg/injection, schedule: Q01DX009 (ip), vehicle: saline) of the same compound?
The T/C was 100 % of control.

And the T/C (endpoint: mean survival time, dose: 335.0 mg/kg/injection, schedule: Q01DX009 (ip), vehicle: saline)?
The T/C was 91 % of control.

How did the T/C (endpoint: mean survival time, dose: 6.25 mg/kg/injection, schedule: Q01DX009 (ip), vehicle: saline) turn out when `CCN=C=NCCCN(C)C` was run?
Its T/C is 105 % of control.

And the T/C (endpoint: mean survival time, dose: 12.5 mg/kg/injection, schedule: Q01DX009 (ip), vehicle: saline)?
The T/C was 110 % of control.

What about the T/C (endpoint: mean survival time, dose: 25.0 mg/kg/injection, schedule: Q01DX009 (ip), vehicle: saline) of the same compound?
Its T/C is 100 % of control.

With `CC(C)CCCC(C)C1CCC2C3CC=C4CC(OCCO)CCC4(C)C3CCC12C` (stereo unspecified) as the compound, how does the T/C (endpoint: mean survival time, dose: 25.0 mg/kg/injection, schedule: Q01DX009 (ip), vehicle: other) read?
The T/C was 104 % of control.

And the T/C (endpoint: mean survival time, dose: 50.0 mg/kg/injection, schedule: Q01DX009 (ip), vehicle: other)?
The T/C was 101 % of control.

And the T/C (endpoint: mean survival time, dose: 100.0 mg/kg/injection, schedule: Q01DX009 (ip), vehicle: other)?
The T/C was 87 % of control.

For `O=C(NCc1ccccc1)C1C2CC3OC(=O)C1C3C2` (stereo unspecified), which T/C (endpoint: mean survival time, dose: 12.5 mg/kg/injection, schedule: Q04DX003 (ip), vehicle: saline with Tween-80) is on record?
Its T/C is 112 % of control.

What about the T/C (endpoint: mean survival time, dose: 12.5 mg/kg/injection, schedule: Q04DX003 (ip), vehicle: saline) of the same compound?
Its T/C is 106 % of control.

What about the T/C (endpoint: mean survival time, dose: 25.0 mg/kg/injection, schedule: Q04DX003 (ip), vehicle: saline with Tween-80) of the same compound?
The T/C was 114 % of control.

And the T/C (endpoint: mean survival time, dose: 25.0 mg/kg/injection, schedule: Q04DX003 (ip), vehicle: saline)?
The T/C was 108 % of control.

And the T/C (endpoint: mean survival time, dose: 50.0 mg/kg/injection, schedule: Q04DX003 (ip), vehicle: saline with Tween-80)?
The T/C was 114 % of control.

What about the T/C (endpoint: mean survival time, dose: 50.0 mg/kg/injection, schedule: Q04DX003 (ip), vehicle: saline) of the same compound?
Its T/C is 110 % of control.

What about the T/C (endpoint: mean survival time, dose: 100.0 mg/kg/injection, schedule: Q04DX003 (ip), vehicle: saline with Tween-80) of the same compound?
Its T/C is 114 % of control.

What about the T/C (endpoint: mean survival time, dose: 100.0 mg/kg/injection, schedule: Q04DX003 (ip), vehicle: saline) of the same compound?
The T/C was 108 % of control.

For `CCCCCCCCCCOc1ccc(Cl)cc1Cl`, which T/C [2] is on record?
The T/C was 101 % of control.

And the T/C (endpoint: mean survival time, dose: 200.0 mg/kg/injection, schedule: Q04DX002 (ip), vehicle: saline with Tween-80)?
Its T/C is 101 % of control.

And the T/C (endpoint: mean survival time, dose: 400.0 mg/kg/injection, schedule: Q04DX002 (ip), vehicle: saline with Tween-80)?
The T/C was 90 % of control.

`Nc1ccc2c(c1)C(=O)c1ccc(N)cc1C2=O` was tested. Which T/C (endpoint: mean survival time, dose: 100.0 mg/kg/injection, schedule: Q01DX001 (ip), vehicle: saline with Tween-80) did it give?
The T/C was 88 % of control.

And the T/C (endpoint: mean survival time, dose: 200.0 mg/kg/injection, schedule: Q01DX001 (ip), vehicle: saline with Tween-80)?
Its T/C is 96 % of control.

What about the T/C [3] of the same compound?
The T/C was 88 % of control.

What does the source list for `Cc1cc(Br)c2nsnc2c1[N+](=O)[O-]`?
T/C (endpoint: median survival time, dose: 25.0 mg/kg/injection, schedule: Q01DX009 (ip), vehicle: saline with Tween-80): 97 % of control; T/C [4]: 100 % of control; T/C [5]: 101 % of control; T/C [6]: 100 % of control; T/C [7]: 101 % of control
